Test results from US20260176284A1, “Compounds with Anti-KRAS Mutated Tumor Activity” (Trasveda Ltd., priority 2022, published 2026).

The compounds below were run on KRAS G12D mutated AGS human gastric adenocarcinoma cells (assay: Proliferation inhibition of KRAS G12D mutant AGS cells, another experiment with similar protocol (includes MRTX1133)). Conditions: not given.
Type: cell-based
Method: In another experiment, using a protocol similar to the one described above, the inhibitory activity of some representative compounds of the present invention against KRAS G12D mutated AGS human gastric adenocarcinoma cells was determined.
The synthesis of compound MRTX1133 was performed according to the method described in J. Med. Chem. 2022, 65, 4, 3123-3133.
Work on `CN1CC[C@H](C(F)F)[C@](C)(COc2nc(N3C[C@H]4CC[C@@H](C3)N4)c3cc(Cl)c(-c4cccc5sc(N)c(C#N)c45)c(F)c3n2)C1` [Example 312-1, (4-((1R,5S)-3,8-diazabicyclo[3.2.1]octan-3-yl)-6-chloro-2-(((3S,4S)-4-(difluoromethyl)-1,3-dimethylpiperidin-3-yl)methoxy)-8-fluoroquinazolin-7-yl)-2-aminobenzo[b]thiophene-3-carbonitrile] yielded an IC50 of 0.011 µM.

Same assay, conditions: Homo sapiens
`[2H]C([2H])([2H])[C@@]1(COc2nc(N3CC4CCC(C3)N4)c3cnc(-c4cc(O)cc5ccc(F)c(C#C)c45)c(F)c3n2)CN(C)CC[C@@H]1C(F)F` (single isomer, unassigned) [Example 426, (Sa) or (Ra)-4-(4-((1R,5S)-3,8-diazabicyclo[3.2.1]octan-3-yl)-2-(((3S,4S)-4-(difluoromethyl)-1-methyl-3-(methyl-d3)piperidin-3-yl)methoxy)-8-fluoropyrido[4,3-d]pyrimidin-7-yl)-5-ethynyl-6-fluoronaphthalen-2-ol] showed an IC50 of 0.007 µM.
For `C#Cc1c(F)ccc2cc(O)cc(-c3c(F)cc4c(N5CC6CCC(C5)N6)nc(OC[C@]5(C)CN(CC)CC[C@H]5F)nc4c3F)c12` (atropisomer, axis not shown; (Ra)) [Example 50-3, (Ra)-4-(4-((1R,5S)-3,8-diazabicyclo[3.2.1]octan-3-yl)-2-(((35,4R)-1-ethyl-4-fluoro-3-methylpiperi-din-3-yl)methoxy)-6,8-difluoroquinazolin-7-yl)-5-ethynyl-6-fluoronaph-thalen-2-ol], the IC50 was 0.007 µM.
Compound `CN1CC[C@H](C(F)F)[C@](C)(COc2nc(N3C[C@H]4CC[C@@H](C3)N4)c3cc(C(F)(F)F)c(-c4c(F)ccc5sc(N)c(C#N)c45)c(F)c3n2)C1` (single isomer, unassigned) [Example 363-1] has an IC50 of 0.004 µM.
With `CN1CC/C(=C\F)[C@](C)(COc2nc(N3CC4CCC(C3)N4)c3cc(F)c(-c4cccc5sc(N)c(C#N)c45)c(F)c3n2)C1` [Example 194] the IC50 was 0.097 µM.
In the case of `C#Cc1c(F)ccc2cc(O)cc(-c3c(F)cc4c(N5CC6CCC(C5)N6)nc(OC[C@]5(C)CN(CC)CCC5=C)nc4c3F)c12` (atropisomer, axis not shown; (Ra)) [Example 63, (Ra)-4-(4-((1R,5S)-3,8-diazabicyclo[3.2.1]octan-3-yl)-2-(((S)-1-ethyl-3-methyl-4-methylenepiperi-din-3-yl)methoxy)-6,8-difluoroquinazolin-7-yl)-5-ethynyl-6-fluoronaph-thalen-2-ol], the IC50 is reported as 0.011 µM.
Work on `C#Cc1c(F)ccc2cc(O)cc(-c3c(F)cc4c(N5CC6CCC(C5)N6)nc(OC[C@]5(C)CN(C)CCC5=C)nc4c3F)c12` (atropisomer, axis not shown; (Ra)) [Example 40, (Ra)-4-(4-((1R,5S)-3,8-diazabicyclo[3.2.1]octan-3-yl)-2-(((S)-1,3-dimethyl-4-methylenepiperidin-3-yl)methoxy)-6,8-difluoroquinazolin-7-yl)-5-ethynyl-6-fluoronaphthalen-2-ol] yielded an IC50 of 0.009 µM.
`[2H]C([2H])([2H])N1CC[C@H](C(F)F)[C@](C)(C([2H])([2H])Oc2nc(N3CC4CCC(C3)N4)c3cc(Cl)c(-c4cccc5sc(N)c(C#N)c45)c(F)c3n2)C1` (single isomer, unassigned) [Example 315-2] was tested, and the IC50 was 0.013 µM.
For `C#Cc1c(F)ccc2cc(O)cc(-c3nc(OC)c4c(N5C[C@H]6CC[C@@H](C5)N6)nc(OC[C@]5(C)CN(C)CCC5=C)nc4c3F)c12` [Example 258, 4-(4-((1R,5S)-3,8-diazabicyclo[3.2.1]octan-3-yl)-2-(((S)-1,3-dimethyl-4-methylenepiperidin-3-yl)methoxy)-8-fluoro-5-methoxypyrido[4,3-d]pyrimidin-7-yl)-5-ethynyl-6-fluoronaphthalen-2-ol], the IC50 was 0.008 µM.
For `CN1CC[C@H](CF)[C@](C)(COc2nc(N3CC4CCC(C3)N4)c3cc(F)c(-c4c(C#N)c(N)cc(Cl)c4C(F)(F)F)c(F)c3n2)C1` (single isomer, unassigned) [Example 122-1, (Ra or Sa)-2-(4-((1R,5S)-3,8-diazabicyclo[3.2.1]octan-3-yl)-6,8-difluoro-2-(((3S,4S)-4-(fluoromethyl)-1,3-dimethylpiperidin-3-yl)methoxy)quinazolin-7-yl)-6-amino-4-chloro-3-(trifluoromethyl) benzonitrile·trifluoroacetate], the IC50 was 0.034 µM.
`C#Cc1c(F)ccc2cc(O)cc(-c3nc(OC)c4c(N5C[C@H]6CC[C@@H](C5)N6)nc(OC[C@]5(C)CN(C)CC[C@@H]5F)nc4c3F)c12` [Example 262, 4-(4-((1R,5S)-3,8-diazabicyclo[3.2.1]octan-3-yl)-8-fluoro-2-(((3S,4S)-4-fluoro-1,3-dimethylpiperidin-3-yl)methoxy)-5-methoxypyrido[4,3-d]pyrimidin-7-yl)-5-ethynyl-6-fluoronaphthalen-2-ol] was tested, and the IC50 was 0.015 µM.
`CN1CC/C(=C\F)[C@](C)(COc2nc(N3CC4CCC(C3)N4)c3cc(Cl)c(-c4cccc5sc(N)c(C#N)c45)c(F)c3n2)C1` (single isomer, unassigned) [Example 313-2] gave an IC50 of 0.017 µM.
With `CCc1c(F)ccc2cc(O)cc(-c3c(F)cc4c(N5CC6CCC(C5)N6)nc(OC[C@]5(C)CN(C)CC[C@@H]5CF)nc4c3F)c12` [Example 99-1] the IC50 was 0.018 µM.
`C#Cc1c(F)ccc2cc(O)cc(-c3c(F)cc4c(N5CC6CCC(C5)N6)nc(OC[C@]5(C)CN(CC)CC[C@@H]5C)nc4c3F)c12` (atropisomer, axis not shown; (Ra)) [Example 52-1, (Ra)-4-(4-((1R,5S)-3,8-diazabicyclo[3.2.1]octan-3-yl)-2-(((35,4S)-1-ethyl-3,4-dimethyl-piperidin-3-yl)methoxy)-6,8-difluoroquinazolin-7-yl)-5-ethynyl-6-fluoro-naphthalen-2-ol] showed an IC50 of 0.01 µM.
Compound `C#Cc1c(F)ccc2cc(O)cc(-c3ncc4c(N5CC6CCC(C5)N6)nc(OC[C@]5(C)CN(C)CC[C@H]5F)nc4c3F)c12` [Example 67-3] has an IC50 of 0.017 µM.
For `C#Cc1c(F)ccc2cc(O)cc(-c3c(F)cc4c(N5C[C@H]6CC[C@@H](C5)N6)nc(OC[C@]5(C)CN(C)CCC56CC6)nc4c3F)c12` [Example 88, 4-(4-((1R,5S)-3,8-diazabicyclo[3.2.1]octan-3-yl)-2-(((S)-4,6-dimethyl-6-azaspiro[2.5]octan-4-yl)methoxy)-6,8-difluoroquinazolin-7-yl)-5-ethynyl-6-fluoronaphthalen-2-ol], the IC50 was 0.017 µM.
For `C#Cc1c(F)ccc2cc(O)cc(-c3nc(OC)c4c(N5C[C@H]6CC[C@@H](C5)N6)nc(OC[C@]5(C)CN(C)CC[C@@H]5CF)nc4c3F)c12` [Example 260, 4-(4-((1R,5S)-3,8-diazabicyclo[3.2.1]octan-3-yl)-8-fluoro-2-(((3S,4S)-4-(fluoromethyl)-1,3-dimethylpiperidin-3-yl)methoxy)-5-methoxypyrido[4,3-d]pyrimidin-7-yl)-5-ethynyl-6-fluoronaphthalen-2-ol], the IC50 was 0.003 µM.
Compound `C#Cc1c(F)ccc2cc(O)cc(-c3c(F)cc4c(N5C[C@H]6CC[C@@H](C5)N6)nc(OC[C@]5(C)CN(CC)CC/C5=C\F)nc4c3F)c12` [Example 79, 4-(4-((1R,5S)-3,8-diazabicyclo[3.2.1]octan-3-yl)-2-(((S,E)-1-ethyl-4-(fluoromethylene)-3-methylpiperidin-3-yl)methoxy)-6,8-difluoroquinazoline-7-yl)-5-ethynyl-6-fluoronaphthalene-2-ol] has an IC50 of 0.004 µM.
Compound `C#Cc1c(F)ccc2cc(O)cc(-c3ncc4c(N5CC6CCC(C5)N6)nc(OC[C@]5(C)CN(C)CC[C@@H]5CF)nc4c3F)c12` [Example 71-2] has an IC50 of 0.008 µM.
Work on `C#Cc1c(F)ccc2cc(O)cc(-c3c(F)cc4c(N5CC6CCC(C5)N6)nc(OC[C@]5(C)CN(C)CC[C@@H]5CF)nc4c3F)c12` (atropisomer, axis not shown; (Ra)) [Example 45-3] yielded an IC50 of 0.005 µM.
`CN1CCC(F)(F)[C@](C)(COc2nc(N3CC4CCC(C3)N4)c3cc(F)c(-c4cc(O)cc(Cl)c4C4CC4)c(F)c3n2)C1` [Example 29-1A, 3-(4-((1R,5S)-3,8-diazabicyclo[3.2.1]octane-3-yl)-2-(((S)-4,4-difluoro-1,3-dimethylpiperidin-3-yl)methoxy)-6,8-difluoroquinolin-7-yl)-5-chloro-4-cyclopropylphenol·diformate] showed an IC50 of 0.63 µM.
In the case of `C#Cc1c(F)ccc2cc(O)cc(-c3c(F)cc4c(N5C[C@H]6CC[C@@H](C5)N6)nc(OC[C@]5(C)CN(CC)CCC56CC6)nc4c3F)c12` [Example 95, 4-(4-((1R,5S)-3,8-diazabicyclo[3.2.1]octan-3-yl)-2-(((S)-6-ethyl-4-methyl-6-azaspiro[2.5]octan-4-yl)methoxy)-6,8-difluoroquinazolin-7-yl)-5-ethynyl-6-fluoronaphthalen-2-ol], the IC50 is reported as 0.008 µM.
Compound `CN1CC[C@H](C(F)F)[C@](C)(COc2nc(N3C[C@H]4CC[C@@H](C3)N4)c3cc(F)c(-c4cccc5sc(N)c(C#N)c45)c(F)c3n2)C1` [Example 190, 4-(4-((1R,5S)-3,8-diazabicyclo[3.2.1]octan-3-yl)-2-(((3S,4S)-4-(difluoromethyl)-1,3-dimethylpiperidin-3-yl)methoxy)-6,8-difluoroquinazolin-7-yl)-2-aminobenzo[b]thiophene-3-nitrile] has an IC50 of 0.047 µM.
Compound `C#Cc1c(F)ccc2cc(O)cc(-c3nc(OC)c4c(N5C[C@H]6CC[C@@H](C5)N6)nc(OC[C@]5(C)CN(C)CC[C@H]5F)nc4c3F)c12` [Example 263, 4-(4-((1R,5S)-3,8-diazabicyclo[3.2.1]octan-3-yl)-8-fluoro-2-(((3S,4R)-4-fluoro-1,3-dimethylpiperidin-3-yl)methoxy)-5-methoxypyrido[4,3-d]pyrimidin-7-yl)-5-ethynyl-6-fluoronaphthalen-2-ol] has an IC50 of 0.012 µM.
Work on `CN1CC/C(=C\F)[C@](C)(COc2nc(N3C[C@H]4CC[C@@H](C3)N4)c3cc(C(F)(F)F)c(-c4c(F)ccc5sc(N)c(C#N)c45)c(F)c3n2)C1` (single isomer, unassigned) [Example 362-1] yielded an IC50 of 0.005 µM.
`C#Cc1c(F)ccc2cc(O)cc(-c3ncc4c(N5CC6CCC(C5)N6)nc(OC[C@]5(C)CN(C)CC[C@@H]5F)nc4c3F)c12` [Example 67-1] was tested, and the IC50 was 0.077 µM.
